Measurements: PubChem BioAssay (NCI)
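Five compound concentrations were applied to cells in 96-well plates for 48 hours; endpoints were derived by simple linear interpolation of the resulting dose-response curve. At the GI50, growth is halved. Definition used: TGI = concentration required for complete inhibition of growth.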

Assays:
Experiment in all cases: growth of human tumour cells (NCI), 48 h
[1] = system: DU-145 prostate
[2] = system: OVCAR-8 ovarian
[3] = system: UACC-257 melanoma
[4] = system: SK-MEL-5 melanoma
[5] = system: SN12C renal
[6] = system: OVCAR-4 ovarian
[7] = system: RPMI-8226 leukemia
[8] = system: UO-31 renal
[9] = system: MDA-MB-231 breast
[10] = system: HL-60(TB) leukemia
[11] = system: ACHN renal
[12] = system: NCI/ADR-RES ovarian
[13] = system: HOP-62 NSCLC
[14] = system: CAKI-1 renal
[15] = system: IGROV1 ovarian
[16] = system: MDA-MB-435
[17] = system: BT-549 breast
[18] = system: SNB-19 CNS
[19] = system: KM12 colon
[20] = system: SF-295 CNS
[21] = system: LOX IMVI melanoma
[22] = system: MALME-3M melanoma
[23] = system: SF-268 CNS
[24] = system: SR leukemia
[25] = system: NCI-H23 lung
[26] = system: EKVX NSCLC
[27] = system: TK-10 renal
[28] = system: SW-620 colon
[29] = system: SK-OV-3 ovarian
[30] = system: SK-MEL-28 melanoma
[31] = system: HT29 colon
[32] = system: HCT-116 colon
[33] = system: K-562 leukemia
[34] = system: SK-MEL-2 melanoma
[35] = system: SF-539 CNS
[36] = system: MDA-MB-468 breast
[37] = system: UACC-62 melanoma
[38] = system: HCC-2998 colon
[39] = system: OVCAR-5 ovarian
[40] = system: RXF 393 renal
[41] = system: HOP-92 NSCLC
[42] = system: CCRF-CEM leukemia
[43] = system: A498 renal
[44] = system: 786-0 renal
[45] = system: PC-3 prostate
[46] = system: SNB-75 CNS
[47] = system: MOLT-4 leukemia
[48] = system: A549 NSCLC
[49] = system: NCI-H522 lung
[50] = system: COLO 205 colon
[51] = system: NCI-H226 lung
[52] = system: OVCAR-3 ovarian
[53] = system: M14 melanoma
[54] = system: T-47D breast
[55] = system: U251 CNS
[56] = system: MCF7 breast
[57] = system: NCI-H460 lung
[58] = system: HS 578T breast
[59] = system: HCT-15 colon

SMILES: CNC(=O)c1cccc(N2CCc3c2ccc(NC(=O)Nc2ccc(N4CCN(C)CC4)c(C(F)(F)F)c2)c3F)c1
- GI50 [1]: 5.68 µM
- TGI [1]: 11.3 µM
- GI50 [2]: 7.5 µM
- TGI [2]: 16.4 µM
- GI50 [3]: 6.1 µM
- TGI [3]: 12 µM
- GI50 [4]: 5.43 µM
- TGI [4]: 10.4 µM
- GI50 [5]: 5.81 µM
- TGI [5]: 11.1 µM
- GI50 [6]: 5.07 µM
- TGI [6]: 11.5 µM
- GI50 [7]: 1.59 µM
- TGI [7]: > 36.5 µM
- GI50 [8]: 5.86 µM
- TGI [8]: 10.8 µM
- GI50 [9]: 2.93 µM
- TGI [9]: 7.59 µM
- GI50 [10]: 7.63 µM
- TGI [10]: 25.7 µM
- GI50 [11]: 5.61 µM
- TGI [11]: 10.5 µM
- GI50 [12]: 7.02 µM
- TGI [12]: 17.5 µM
- GI50 [13]: 5.23 µM
- TGI [13]: 11.9 µM
- GI50 [14]: 6.04 µM
- TGI [14]: 12 µM
- GI50 [15]: 6.21 µM
- TGI [15]: 11.7 µM
- GI50 [16]: 5.28 µM
- TGI [16]: 10.5 µM
- GI50 [17]: 5.14 µM
- TGI [17]: 11.1 µM
- GI50 [18]: 5.48 µM
- TGI [18]: 10.7 µM
- GI50 [19]: 0.166 µM
- TGI [19]: 6.5 µM
- GI50 [20]: 0.717 µM
- TGI [20]: 1.7 µM
- GI50 [21]: 5.15 µM
- TGI [21]: 10.3 µM
- GI50 [22]: 4.17 µM
- TGI [22]: 8.7 µM
- GI50 [23]: 4.87 µM
- TGI [23]: 12.3 µM
- GI50 [24]: 5.74 µM
- TGI [24]: > 36.5 µM
- GI50 [25]: 5.97 µM
- TGI [25]: 11.8 µM
- GI50 [26]: 5.05 µM
- TGI [26]: 10.2 µM
- GI50 [27]: 6.21 µM
- TGI [27]: 11.6 µM
- GI50 [28]: 1.19 µM
- TGI [28]: 5.23 µM
- GI50 [29]: 5.93 µM
- TGI [29]: 11.7 µM
- GI50 [30]: 4.99 µM
- TGI [30]: 9.81 µM
- GI50 [31]: 1.44 µM
- TGI [31]: 8.51 µM
- GI50 [32]: 5.06 µM
- TGI [32]: 13.8 µM
- GI50 [33]: 6.69 µM
- TGI [33]: > 36.5 µM
- GI50 [34]: 6.15 µM
- TGI [34]: 11.8 µM
- GI50 [35]: 1.18 µM
- TGI [35]: 4.94 µM
- GI50 [36]: 5.41 µM
- TGI [36]: 11.3 µM
- GI50 [37]: 5.9 µM
- TGI [37]: 10.8 µM
- GI50 [38]: 5.3 µM
- TGI [38]: 10.3 µM
- GI50 [39]: 5.45 µM
- TGI [39]: 10.3 µM
- GI50 [40]: 0.976 µM
- TGI [40]: 2.65 µM
- GI50 [41]: 5.36 µM
- TGI [41]: 11.6 µM
- GI50 [42]: 5.43 µM
- TGI [42]: 29.3 µM
- GI50 [43]: 5.36 µM
- TGI [43]: 10.4 µM
- GI50 [44]: 1.99 µM
- TGI [44]: 8.25 µM
- GI50 [45]: 3.91 µM
- TGI [45]: 12.1 µM
- GI50 [46]: 1.25 µM
- TGI [46]: 6.93 µM
- GI50 [47]: 1.7 µM
- TGI [47]: 20.9 µM
- GI50 [48]: 5.75 µM
- TGI [48]: 13.9 µM
- GI50 [49]: 6.46 µM
- TGI [49]: 13.9 µM
- GI50 [50]: 6.46 µM
- TGI [50]: 17.5 µM
- GI50 [51]: 6.12 µM
- TGI [51]: 14.6 µM
- GI50 [52]: 5.04 µM
- TGI [52]: 11 µM
- GI50 [53]: 6.78 µM
- TGI [53]: 14.3 µM
- GI50 [54]: 6.33 µM
- TGI [54]: 19.3 µM
- GI50 [55]: 3.73 µM
- TGI [55]: 8.59 µM
- GI50 [56]: 4.63 µM
- TGI [56]: 10.3 µM
- GI50 [57]: 5.27 µM
- TGI [57]: 11.6 µM
- GI50 [58]: 1.46 µM
- TGI [58]: 8.54 µM
- GI50 [59]: 3.92 µM
- TGI [59]: 9.15 µM

SMILES: OC1CCC(Cn2c(C(F)(F)F)cc3c(Cl)ncnc32)CC1 (stereo unspecified)
- GI50 [1]: 7.87 µM
- TGI [1]: 20.5 µM
- GI50 [2]: 2.29 µM
- TGI [2]: 5.39 µM
- GI50 [3]: 3.4 µM
- TGI [3]: 14.1 µM
- GI50 [4]: 4.81 µM
- TGI [4]: 16.7 µM
- GI50 [5]: 5.36 µM
- TGI [5]: 19.8 µM
- GI50 [6]: 17.8 µM
- TGI [6]: 47.2 µM
- GI50 [7]: 34 µM
- TGI [7]: > 100 µM
- GI50 [8]: 15.1 µM
- TGI [8]: 65.8 µM
- GI50 [9]: 4.45 µM
- TGI [9]: 20.1 µM
- GI50 [10]: 2.62 µM
- TGI [10]: 9.01 µM
- GI50 [11]: 8.76 µM
- TGI [11]: 49.9 µM
- GI50 [12]: 26.1 µM
- TGI [12]: > 100 µM
- GI50 [13]: 19.7 µM
- TGI [13]: 57.6 µM
- GI50 [14]: 16.8 µM
- TGI [14]: 52.8 µM
- GI50 [15]: 1.97 µM
- TGI [15]: 4.07 µM
- GI50 [16]: 12.1 µM
- TGI [16]: 25.8 µM
- GI50 [17]: 13.1 µM
- TGI [17]: 27.9 µM
- GI50 [18]: 13.4 µM
- TGI [18]: 26.8 µM
- GI50 [19]: 26.4 µM
- TGI [19]: 94.3 µM
- GI50 [20]: 22.7 µM
- TGI [20]: 84 µM
- GI50 [21]: 1.71 µM
- TGI [21]: 3.15 µM
- GI50 [22]: 17.7 µM
- TGI [22]: 64.5 µM
- GI50 [23]: 2.52 µM
- TGI [23]: 6.89 µM
- GI50 [24]: 2.14 µM
- TGI [24]: 6.78 µM
- GI50 [25]: 3.08 µM
- TGI [25]: 11.4 µM
- GI50 [26]: 12.9 µM
- TGI [26]: 38.7 µM
- GI50 [27]: > 100 µM
- TGI [27]: > 100 µM
- GI50 [28]: 12.2 µM
- TGI [28]: 38.8 µM
- GI50 [29]: 22.4 µM
- TGI [29]: > 100 µM
- GI50 [30]: 9.38 µM
- TGI [30]: 30.8 µM
- GI50 [31]: 15.6 µM
- TGI [31]: > 100 µM
- GI50 [32]: 3.56 µM
- TGI [32]: 15.8 µM
- GI50 [33]: 2.88 µM
- TGI [33]: > 100 µM
- GI50 [34]: 13.2 µM
- TGI [34]: 27.9 µM
- GI50 [35]: 17.7 µM
- TGI [35]: 39 µM
- GI50 [36]: 2.14 µM
- TGI [36]: 5.69 µM
- GI50 [37]: 5.4 µM
- TGI [37]: 19.3 µM
- GI50 [38]: 1.8 µM
- TGI [38]: 3.33 µM
- GI50 [39]: > 100 µM
- TGI [39]: > 100 µM
- GI50 [40]: 12.5 µM
- TGI [40]: 35 µM
- GI50 [41]: 20.6 µM
- TGI [41]: 64.6 µM
- GI50 [42]: 5.56 µM
- TGI [42]: > 100 µM
- GI50 [43]: > 100 µM
- TGI [43]: > 100 µM
- GI50 [44]: 32.1 µM
- TGI [44]: > 100 µM
- GI50 [45]: 9.01 µM
- TGI [45]: 36.3 µM
- GI50 [46]: 10.8 µM
- TGI [46]: 23.1 µM
- GI50 [47]: 2.77 µM
- TGI [47]: 8.15 µM
- GI50 [48]: 30.8 µM
- TGI [48]: > 100 µM
- GI50 [49]: 1.54 µM
- TGI [49]: 3.55 µM
- GI50 [50]: 24.4 µM
- TGI [50]: > 100 µM
- GI50 [51]: 23.4 µM
- TGI [51]: 79.7 µM
- GI50 [52]: 8.04 µM
- TGI [52]: 29.1 µM
- GI50 [53]: 4.94 µM
- TGI [53]: 27 µM
- GI50 [54]: 26.5 µM
- TGI [54]: > 100 µM
- GI50 [55]: 3.21 µM
- TGI [55]: 12.8 µM
- GI50 [56]: 36.9 µM
- TGI [56]: > 100 µM
- GI50 [57]: 4.76 µM
- TGI [57]: 16.6 µM
- GI50 [58]: 13.8 µM
- TGI [58]: 53.6 µM
- GI50 [59]: 3.69 µM
- TGI [59]: 20.1 µM
